Read-outs that look alike come from different tables or passages of the source. Where a SMILES comes first, the peptide text is derived from it. Where no end group is shown, it is not given here. [ ]: non-standard residue; d: D form. Sar = CNCC(=O)O
Key:
[1] = molecular target: T1, α-syn fibrils (Homo sapiens, UniProt P37840); assay: SPR binding to immobilized sonicated, filtered α-syn fibrils; details: steady-state, 1:1 binding model, read-out: equilibrium dissociation constant Kd, α-syn fibril
T1 construct: made in house; host or cells: Escherichia coli BL21 (DE3) gold
From the text: Computational modeling predicted that our candidate peptidic inhibitors bind α-syn fibril seeds and prevent their growth and propagation. To obtain direct evidence of binding of our inhibitors to α-syn fibril seeds, we used surface plasmon resonance (SPR) (Figure 2A). For the SPR experiments, α-syn fibrils were immobilized on a CM5 sensor chip using standard amine coupling chemistry. For immobilization, mature α-syn fibrils were sonicated to form short fragments (Figure 2—figure supplement 1A) and then filtered through a 0.22-micron filter to remove large aggregates, retaining short fibrils (Figure 2—figure supplement 1A). We confirmed that short fibrils generated by sonication retain the ability to seed monomeric α-syn using an in vitro-seeded-aggregation assay. […] We then immobilized the sonicated and filtered α-syn fibrils on a CM5 SPR chip and measured affinities of our peptide inhibitors to the fibrils. […] The equilibrium dissociation constant (Kd) was calculated by steady-state analysis, fitting the data with 1:1 binding model (Figure 2B). […]
Figure 2. […] (B) The equilibrium dissociation constant (Kd) was calculated by fitting the plot of steady-state inhibitor binding levels (SPR signal at steady-state) against inhibitor concentration with 1:1 binding model. […]

[2] = molecular target: T2, monomeric α-syn (Homo sapiens, UniProt P37840); assay: SPR binding to immobilized α-syn monomers; details: Biacore T200, CM5 chip amine coupling, inhibitor 0.5–500 μM, 30 μl/min, PBS pH 7.4, 25°C, steady-state, 1:1 binding model, mean ± SD, performed thrice, read-out: dissociation constant Kd, α-syn monomer
T2 construct: prevent aggregation of full-length α-syn in vitro; made in house; host or cells: Escherichia coli BL21 (DE3) gold

[3] = ref Rodriguez et al., 2015; cited from earlier work
From the text: Based on the atomic structure of NACore [68-GAVVTGVTAVA-78] as a template, we applied computational and structure-based approaches to design peptidic inhibitors. […] The inhibitors were designed using Rosetta-based computational modeling to bind to the tip of the steric-zipper protofilament, thereby capping the fibrils (Figure 1A). We identified four candidates; S37, S61, S62 and S71 that are computed to bind favo ...

Molecule | Kd ([1]; Biacore T200, CM5 chip amine coupling, inhibitor 0.5–500 μM, 30 μl/min, PBS pH 7.4, 25°C, mean ± SD, performed thrice) | Kd [2] | aggregation rate relative to NACore [3] | Kd [1]
CC(C)[C@H](NC(=O)CN(C)C(=O)[C@@H](NC(=O)[C@@H](NC(=O)[C@@H](NC(=O)[C@H](C)NC(=O)[C@H](CCCNC(=N)N)NC(=O)[C@H](CCCNC(=N)N)NC(=O)[C@H](CCCNC(=N)N)NC(=O)[C@H](CCC(N)=O)NC(=O)[C@H](CCCNC(=N)N)NC(=O)[C@H](CCCNC(=N)N)NC(=O)[C@H](CCCCN)NC(=O)[C@H](CCCCN)NC(=O)[C@H](CCCNC(=N)N)NC(=O)CNC(=O)[C@@H](N)Cc1ccc(O)cc1)C(C)C)C(C)C)[C@@H](C)O)C(=O)N[C@H](C(=O)N[C@@H](C)C(=O)N[C@H](C(=O)N[C@@H](C)C(=O)N[C@@H](CCC(=O)O)C(=O)O)C(C)C)[C@@H](C)O [S71] (H-YGRKKRRQRRRAVVT[Sar]VTAVAE-OH) | 10.9 ± 0.11 µM | 116 ± 11.7 µM | – | –
AVVTGVTAV [69-AVVTGVTAV-77, smaller 9-residue segment within NACore] | – | – | aggregates slower than NACore | –
GAVVWGVTAVGRKKRRQRRRPQ [S61] | – | 62.8 ± 11.7 µM | – | 9.28 µM
